Reference: PubChem BioAssay (NCI)
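Assay format: 96-well plates, 48-hour exposure. The concentration for 50% growth inhibition is given as GI50. TGI: total growth inhibition.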

Legend:
Test in all cases: NCI tumour cell line growth inhibition, 48 h; in the data active means GI50 below about 0.43 µM; inactive means the rest
OVCAR-4 ovarian = system: OVCAR-4 ovarian
HS 578T breast = system: HS 578T breast
MALME-3M melanoma = system: MALME-3M melanoma
NCI-H23 lung = system: NCI-H23 lung
IGROV1 ovarian = system: IGROV1 ovarian
SR leukemia = system: SR leukemia
HCT-116 colon = system: HCT-116 colon
SK-MEL-5 melanoma = system: SK-MEL-5 melanoma
HCT-15 colon = system: HCT-15 colon
NCI-H460 lung = system: NCI-H460 lung
NCI-H522 lung = system: NCI-H522 lung
CAKI-1 renal = system: CAKI-1 renal
OVCAR-8 ovarian = system: OVCAR-8 ovarian
RXF 393 renal = system: RXF 393 renal
EKVX NSCLC = system: EKVX NSCLC
SK-OV-3 ovarian = system: SK-OV-3 ovarian
SK-MEL-2 melanoma = system: SK-MEL-2 melanoma
NCI-H226 lung = system: NCI-H226 lung
786-0 renal = system: 786-0 renal
SF-539 CNS = system: SF-539 CNS
A498 renal = system: A498 renal
LOX IMVI melanoma = system: LOX IMVI melanoma
SF-295 CNS = system: SF-295 CNS
RPMI-8226 leukemia = system: RPMI-8226 leukemia
SW-620 colon = system: SW-620 colon
MDA-MB-435 = system: MDA-MB-435
A549 NSCLC = system: A549 NSCLC
NCI/ADR-RES ovarian = system: NCI/ADR-RES ovarian
HOP-92 NSCLC = system: HOP-92 NSCLC
COLO 205 colon = system: COLO 205 colon
UO-31 renal = system: UO-31 renal
MDA-MB-231 breast = system: MDA-MB-231 breast
U251 CNS = system: U251 CNS
UACC-257 melanoma = system: UACC-257 melanoma
M14 melanoma = system: M14 melanoma
KM12 colon = system: KM12 colon
SK-MEL-28 melanoma = system: SK-MEL-28 melanoma
SF-268 CNS = system: SF-268 CNS
SNB-19 CNS = system: SNB-19 CNS
MOLT-4 leukemia = system: MOLT-4 leukemia
HL-60(TB) leukemia = system: HL-60(TB) leukemia
HT29 colon = system: HT29 colon
BT-549 breast = system: BT-549 breast
OVCAR-5 ovarian = system: OVCAR-5 ovarian
DU-145 prostate = system: DU-145 prostate
T-47D breast = system: T-47D breast
TK-10 renal = system: TK-10 renal
K-562 leukemia = system: K-562 leukemia
SN12C renal = system: SN12C renal
ACHN renal = system: ACHN renal
OVCAR-3 ovarian = system: OVCAR-3 ovarian
HOP-62 NSCLC = system: HOP-62 NSCLC
CCRF-CEM leukemia = system: CCRF-CEM leukemia
MCF7 breast = system: MCF7 breast
SNB-75 CNS = system: SNB-75 CNS
PC-3 prostate = system: PC-3 prostate
HCC-2998 colon = system: HCC-2998 colon
UACC-62 melanoma = system: UACC-62 melanoma

CCOC(=O)C1=C(C)N(Cc2ccc(Cl)cc2Cl)[C@]2(C#N)C(O)=C(Cl)C(Cl)=C(O)[C@]12C#N
38.7 µM: TGI (DU-145 prostate)
active: GI50 (NCI/ADR-RES ovarian) 0.19 µM
89.1 µM: TGI (RXF 393 renal)
35 µM: TGI (LOX IMVI melanoma)
80.4 µM: TGI (NCI-H23 lung)
86.4 µM: TGI (SNB-75 CNS)
76.9 µM: TGI (HL-60(TB) leukemia)
44.2 µM: TGI (HOP-92 NSCLC)
37.3 µM: TGI (CCRF-CEM leukemia)
33.1 µM: TGI (SF-539 CNS)
15.6 µM: TGI (NCI/ADR-RES ovarian)
82.9 µM: TGI (SW-620 colon)
47.3 µM: TGI (RPMI-8226 leukemia)
61.6 µM: TGI (MOLT-4 leukemia)
57.5 µM: TGI (K-562 leukemia)
38.9 µM: TGI (SR leukemia)
inactive: GI50 (OVCAR-4 ovarian) > 100 µM | GI50 (HS 578T breast) > 100 µM | GI50 (MALME-3M melanoma) > 100 µM | GI50 (NCI-H23 lung) 16.3 µM | GI50 (IGROV1 ovarian) > 100 µM | GI50 (SR leukemia) 16 µM | GI50 (HCT-116 colon) 34.7 µM | GI50 (SK-MEL-5 melanoma) > 100 µM | GI50 (HCT-15 colon) 62 µM | GI50 (NCI-H460 lung) > 100 µM | GI50 (NCI-H522 lung) 42.5 µM | GI50 (CAKI-1 renal) > 100 µM | GI50 (OVCAR-8 ovarian) 73.4 µM | GI50 (RXF 393 renal) 30.6 µM | GI50 (EKVX NSCLC) > 100 µM | GI50 (SK-OV-3 ovarian) > 100 µM | GI50 (SK-MEL-2 melanoma) > 100 µM | GI50 (NCI-H226 lung) > 100 µM | GI50 (786-0 renal) > 100 µM | GI50 (SF-539 CNS) 14.2 µM | GI50 (A498 renal) > 100 µM | GI50 (LOX IMVI melanoma) 17.5 µM | GI50 (SF-295 CNS) > 100 µM | GI50 (RPMI-8226 leukemia) 21.2 µM | GI50 (SW-620 colon) 31.8 µM | GI50 (MDA-MB-435) > 100 µM | GI50 (A549 NSCLC) > 100 µM | GI50 (HOP-92 NSCLC) 17.9 µM | GI50 (COLO 205 colon) > 100 µM | GI50 (UO-31 renal) 92 µM | GI50 (MDA-MB-231 breast) 26.7 µM | GI50 (U251 CNS) 44.8 µM | GI50 (UACC-257 melanoma) > 100 µM | GI50 (M14 melanoma) > 100 µM | GI50 (KM12 colon) > 100 µM | GI50 (SK-MEL-28 melanoma) > 100 µM | GI50 (SF-268 CNS) 42.1 µM | GI50 (SNB-19 CNS) 92.8 µM | GI50 (MOLT-4 leukemia) 27.9 µM | GI50 (HL-60(TB) leukemia) 31.9 µM | GI50 (HT29 colon) > 100 µM | GI50 (BT-549 breast) 21.1 µM | GI50 (OVCAR-5 ovarian) 2.7 µM | GI50 (DU-145 prostate) 16.7 µM | GI50 (T-47D breast) 31.9 µM | GI50 (TK-10 renal) 84.7 µM | GI50 (K-562 leukemia) 28.1 µM | GI50 (SN12C renal) 73.9 µM | GI50 (ACHN renal) > 100 µM | GI50 (OVCAR-3 ovarian) 46.7 µM | GI50 (HOP-62 NSCLC) > 100 µM | GI50 (CCRF-CEM leukemia) 18.4 µM | GI50 (MCF7 breast) 39.3 µM | GI50 (SNB-75 CNS) 32.2 µM
98.9 µM: TGI (MDA-MB-231 breast)
78.4 µM: TGI (T-47D breast)
> 100 µM: TGI (OVCAR-4 ovarian) | TGI (HS 578T breast) | TGI (MALME-3M melanoma) | TGI (IGROV1 ovarian) | TGI (HCT-116 colon) | TGI (SK-MEL-5 melanoma) | TGI (HCT-15 colon) | TGI (NCI-H460 lung) | TGI (NCI-H522 lung) | TGI (CAKI-1 renal) | TGI (OVCAR-8 ovarian) | TGI (EKVX NSCLC) | TGI (SK-OV-3 ovarian) | TGI (SK-MEL-2 melanoma) | TGI (NCI-H226 lung) | TGI (786-0 renal) | TGI (A498 renal) | TGI (SF-295 CNS) | TGI (MDA-MB-435) | TGI (A549 NSCLC) | TGI (COLO 205 colon) | TGI (UO-31 renal) | TGI (U251 CNS) | TGI (UACC-257 melanoma) | TGI (M14 melanoma) | TGI (KM12 colon) | TGI (SK-MEL-28 melanoma) | TGI (SF-268 CNS) | TGI (SNB-19 CNS) | TGI (HT29 colon) | TGI (BT-549 breast) | TGI (TK-10 renal) | TGI (SN12C renal) | TGI (ACHN renal) | TGI (OVCAR-3 ovarian) | TGI (HOP-62 NSCLC) | TGI (MCF7 breast)
31.3 µM: TGI (OVCAR-5 ovarian)

O=C(Nc1nc2c(s1)CCc1c-2c(Br)n(Cc2ccccc2)c1Br)c1ccccc1
32.6 µM: TGI (MDA-MB-231 breast)
64.4 µM: TGI (MOLT-4 leukemia)
13.2 µM: TGI (SF-295 CNS)
70.7 µM: TGI (SK-MEL-28 melanoma)
inactive: GI50 (OVCAR-4 ovarian) 1.8 µM | GI50 (MALME-3M melanoma) 2.57 µM | GI50 (NCI-H23 lung) 8.03 µM | GI50 (IGROV1 ovarian) 2.68 µM | GI50 (SR leukemia) 12.1 µM | GI50 (HCT-116 colon) 3.98 µM | GI50 (SK-MEL-5 melanoma) 2.17 µM | GI50 (HCT-15 colon) 12.4 µM | GI50 (NCI-H460 lung) 3.82 µM | GI50 (NCI-H522 lung) 4.41 µM | GI50 (CAKI-1 renal) 9.89 µM | GI50 (OVCAR-8 ovarian) 3.91 µM | GI50 (RXF 393 renal) 2.01 µM | GI50 (SK-OV-3 ovarian) 3.23 µM | GI50 (SK-MEL-2 melanoma) 3.47 µM | GI50 (NCI-H226 lung) 1.87 µM | GI50 (PC-3 prostate) 4.26 µM | GI50 (786-0 renal) 2.73 µM | GI50 (SF-539 CNS) 1.55 µM | GI50 (A498 renal) 4.7 µM | GI50 (LOX IMVI melanoma) 5.53 µM | GI50 (HCC-2998 colon) > 100 µM | GI50 (SF-295 CNS) 3.01 µM | GI50 (RPMI-8226 leukemia) 11.4 µM | GI50 (SW-620 colon) 21.4 µM | GI50 (MDA-MB-435) 2.97 µM | GI50 (A549 NSCLC) 3.12 µM | GI50 (NCI/ADR-RES ovarian) 21 µM | GI50 (HOP-92 NSCLC) 1.2 µM | GI50 (COLO 205 colon) 8.05 µM | GI50 (UO-31 renal) 3.19 µM | GI50 (MDA-MB-231 breast) 2.16 µM | GI50 (U251 CNS) 3.42 µM | GI50 (UACC-257 melanoma) 8.53 µM | GI50 (M14 melanoma) 9.94 µM | GI50 (KM12 colon) 6.19 µM | GI50 (SK-MEL-28 melanoma) 4.34 µM | GI50 (SF-268 CNS) 6.03 µM | GI50 (SNB-19 CNS) 7.41 µM | GI50 (MOLT-4 leukemia) 22.7 µM | GI50 (HL-60(TB) leukemia) 45.3 µM | GI50 (HT29 colon) 4.71 µM | GI50 (BT-549 breast) 2.53 µM | GI50 (OVCAR-5 ovarian) 47.3 µM | GI50 (DU-145 prostate) 5.19 µM | GI50 (T-47D breast) 1.4 µM | GI50 (TK-10 renal) 2.98 µM | GI50 (K-562 leukemia) 22.9 µM | GI50 (SN12C renal) 10 µM | GI50 (ACHN renal) 1.88 µM | GI50 (OVCAR-3 ovarian) 4.24 µM | GI50 (HOP-62 NSCLC) 2.13 µM | GI50 (MCF7 breast) 5.38 µM | GI50 (SNB-75 CNS) 1.77 µM | GI50 (UACC-62 melanoma) 4.66 µM
4.74 µM: TGI (SNB-75 CNS)
33.4 µM: TGI (IGROV1 ovarian)
11.6 µM: TGI (SK-MEL-5 melanoma)
10.2 µM: TGI (MALME-3M melanoma)
35.9 µM: TGI (MDA-MB-435)
16.3 µM: TGI (SK-OV-3 ovarian)
11.3 µM: TGI (U251 CNS)
3.38 µM: TGI (SF-539 CNS)
9.16 µM: TGI (NCI-H226 lung)
23.1 µM: TGI (A549 NSCLC)
11.9 µM: TGI (786-0 renal)
28.9 µM: TGI (A498 renal)
19.7 µM: TGI (T-47D breast)
4.63 µM: TGI (HOP-92 NSCLC)
19.6 µM: TGI (SK-MEL-2 melanoma)
7.35 µM: TGI (ACHN renal)
7.54 µM: TGI (OVCAR-4 ovarian)
39.9 µM: TGI (UO-31 renal)
17.3 µM: TGI (OVCAR-3 ovarian)
7.85 µM: TGI (TK-10 renal)
7.69 µM: TGI (RXF 393 renal)
> 100 µM: TGI (NCI-H23 lung) | TGI (SR leukemia) | TGI (HCT-116 colon) | TGI (HCT-15 colon) | TGI (NCI-H460 lung) | TGI (CAKI-1 renal) | TGI (OVCAR-8 ovarian) | TGI (PC-3 prostate) | TGI (LOX IMVI melanoma) | TGI (HCC-2998 colon) | TGI (RPMI-8226 leukemia) | TGI (SW-620 colon) | TGI (NCI/ADR-RES ovarian) | TGI (COLO 205 colon) | TGI (UACC-257 melanoma) | TGI (M14 melanoma) | TGI (KM12 colon) | TGI (SF-268 CNS) | TGI (SNB-19 CNS) | TGI (HL-60(TB) leukemia) | TGI (HT29 colon) | TGI (OVCAR-5 ovarian) | TGI (DU-145 prostate) | TGI (K-562 leukemia) | TGI (SN12C renal) | TGI (MCF7 breast) | TGI (UACC-62 melanoma)
32.5 µM: TGI (NCI-H522 lung)
8.01 µM: TGI (BT-549 breast)
6.72 µM: TGI (HOP-62 NSCLC)
